Test results taken from patent US9637490B2, “Antifungal 5,6-dihydro-4-[(difluoroethyl)phenyl]-4H-pyrrolo[1,2-α][1,4]benzodiazepine and 4-(difluoroethyl)phenyl-6H-pyrrolo[1,2-α][1,4]benzodiazepine derivatives” (Janssen Pharmaceutica NV, priority 2010, dated 2017).

What was measured:
[1] = test system: Microsporum canis (strain B68128); test: Test D.4.1: activity against M. canis in guinea-pigs after oral treatment for 7 consecutive days; type: in vivo; parameters: key to semi-quantitative lesion score (mean): lesion score 0–3.5 by severity and size of lesion
Summary of the method: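 Female Duncan-Hartley guinea pigs, scarified depilated dorsum inoculated with 10^6 cfu M. canis spores in honey-water. Compounds in methocel 0.5%/Tween 80 vehicle given by oral gavage once daily for 7 days, starting ~2 h pre-infection; itraconazole reference. Lesions scored semi-quantitatively (0–3.5) on days 3–20 post-infection; mean scores.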

[2] = test system: Mucor circinelloides IHEM21105; test: Antifungal activity in vitro (resazurin susceptibility screen), Inf. L; type: cell-based; conditions: 27 °C, 48 hours, resa time 17 hours
Summary of the method: (§1)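 Compound dilutions spotted on plates, highest in-test concentration 64 μM. Inoculum of 10^3 cfu/well in RPMI-MOPS pH 7.0 added, then incubated by species (yeasts 24 h at 37° C; dermatophytes one week or more at 27° C). Resazurin added for a further period before fluorescence reading.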

[3] = test system: Aspergillus fumigatus B42928; test: Antifungal activity in vitro (resazurin susceptibility screen), Inf. E; type: cell-based; conditions: Aspergillus fumigatus, B42928, Aspergillus fumigatus B42928; 27 °C, 48 hours, resa time 17 hours
Summary of the method: as §1

[4] = test system: Cryptococcus neoformans B66663; test: Antifungal activity in vitro (resazurin susceptibility screen), Inf. F; type: cell-based; conditions: Cryptococcus neoformans, B66663, Cryptococcus neoformans B66663; 37 °C, 24 hours, resa time 4 hours
Summary of the method: as §1

[5] = test system: Sporothrix schenkii B62482; test: Antifungal activity in vitro (resazurin susceptibility screen), Inf. A; type: cell-based; conditions: Sporothrix, B62482, Sporothrix schenkii B62482; 27 °C, 4 days, resa time 24 hours
Summary of the method: as §1

Rhizopus oryzae IHEM5223 = test: Antifungal activity in vitro (resazurin susceptibility screen), Inf. J; type: cell-based; conditions: Rhizopus arrhizus, 37 °C, 24 hours, resa time 6 hours
Summary of the method: as §1

[6] = test system: Candida parapsilosis B66126; test: Antifungal activity in vitro (resazurin susceptibility screen), Inf. D; type: cell-based; conditions: Lodderomyces parapsilosis, B66126, Candida parapsilosis B66126; 37 °C, 24 hours, resa time 4 hours
Summary of the method: as §1

SMILES: CC(F)(F)c1ccc(C2=NCc3c(Cl)cccc3-n3cccc32)cc1 [Compound 4, 7-chloro-4-[4-(1,1-difluoroethyl)phenyl]-6H-pyrrolo[1,2-a][1,4]benzodiazepine]
- semi-quantitative lesion score (mean) ([1]; oral 5 mg/kg once daily for 7 days, 3 DPI): 0
- semi-quantitative lesion score (mean) ([1]; oral 5 mg/kg once daily for 7 days, 5 DPI): 0.67
- semi-quantitative lesion score (mean) ([1]; oral 5 mg/kg once daily for 7 days, 7 DPI): 1.50
- semi-quantitative lesion score (mean) ([1]; oral 5 mg/kg once daily for 7 days, 10 DPI): 2.00
- semi-quantitative lesion score (mean) ([1]; oral 5 mg/kg once daily for 7 days, 12 DPI): 2.17
- semi-quantitative lesion score (mean) ([1]; oral 5 mg/kg once daily for 7 days, 14 DPI): 1.83
- semi-quantitative lesion score (mean) ([1]; oral 5 mg/kg once daily for 7 days, 17 DPI): 1.33
- semi-quantitative lesion score (mean) ([1]; oral 5 mg/kg once daily for 7 days, 20 DPI): 1.17
- activity compared with the terbinafine group (G2, 10 mg/kg) ([1]; oral 10 mg/kg once daily for 7 days): comparable to G2
- semi-quantitative lesion score (mean) ([1]; oral 10 mg/kg once daily for 7 days, 3 DPI): 0
- semi-quantitative lesion score (mean) ([1]; oral 10 mg/kg once daily for 7 days, 5 DPI): 0
- semi-quantitative lesion score (mean) ([1]; oral 10 mg/kg once daily for 7 days, 7 DPI): 0.33
- semi-quantitative lesion score (mean) ([1]; oral 10 mg/kg once daily for 7 days, 10 DPI): 1.00
- semi-quantitative lesion score (mean) ([1]; oral 10 mg/kg once daily for 7 days, 12 DPI): 1.50
- semi-quantitative lesion score (mean) ([1]; oral 10 mg/kg once daily for 7 days, 14 DPI): 1.50
- semi-quantitative lesion score (mean) ([1]; oral 10 mg/kg once daily for 7 days, 17 DPI): 0.50
- semi-quantitative lesion score (mean) ([1]; oral 10 mg/kg once daily for 7 days, 20 DPI): 0.33
- activity compared with the terbinafine group (G2, 10 mg/kg) ([1]; oral 40 mg/kg once daily for 7 days): remarkably more active than the terbinafine group
- semi-quantitative lesion score (mean) ([1]; oral 40 mg/kg once daily for 7 days, 3 DPI): 0
- semi-quantitative lesion score (mean) ([1]; oral 40 mg/kg once daily for 7 days, 5 DPI): 0.17
- semi-quantitative lesion score (mean) ([1]; oral 40 mg/kg once daily for 7 days, 7 DPI): 0.17
- semi-quantitative lesion score (mean) ([1]; oral 40 mg/kg once daily for 7 days, 10 DPI): 0.17
- semi-quantitative lesion score (mean) ([1]; oral 40 mg/kg once daily for 7 days, 12 DPI): 0.17
- semi-quantitative lesion score (mean) ([1]; oral 40 mg/kg once daily for 7 days, 14 DPI): 0
- semi-quantitative lesion score (mean) ([1]; oral 40 mg/kg once daily for 7 days, 17 DPI): 0.17
- semi-quantitative lesion score (mean) ([1]; oral 40 mg/kg once daily for 7 days, 20 DPI): 0.17
- IC50 [2]: > 64.6 µM
- IC50 [3]: 2.24 µM
- IC50 [4]: 21.4 µM
- IC50 [5]: 12 µM
- IC50 (Rhizopus oryzae IHEM5223): > 64.6 µM
- IC50 [6]: 3.09 µM
